Experimental data published in ChEMBL document CHEMBL3352414, “Structure based inhibitor design targeting glycogen phosphorylase B. Virtual screening, synthesis, biochemical and biological assessment of novel N-acyl-β-d-glucopyranosylamines” (Bioorg Med Chem, 2014).

Tests used:
[1] = Octanol water partition coefficient, logP of the compound; format: physicochemical
[2] = Permeability in human Caco2 cells; format: ADME, cell-based; details: Caco-2, read-out: permeability
[3] = target: T1, Glycogen phosphorylase, muscle form (Oryctolagus cuniculus, UniProt P00489); assay: Inhibition of rabbit skeletal muscle glycogen phosphorylase b assessed as inorganic phosphate release
T1 sequence (P00489 whole entry): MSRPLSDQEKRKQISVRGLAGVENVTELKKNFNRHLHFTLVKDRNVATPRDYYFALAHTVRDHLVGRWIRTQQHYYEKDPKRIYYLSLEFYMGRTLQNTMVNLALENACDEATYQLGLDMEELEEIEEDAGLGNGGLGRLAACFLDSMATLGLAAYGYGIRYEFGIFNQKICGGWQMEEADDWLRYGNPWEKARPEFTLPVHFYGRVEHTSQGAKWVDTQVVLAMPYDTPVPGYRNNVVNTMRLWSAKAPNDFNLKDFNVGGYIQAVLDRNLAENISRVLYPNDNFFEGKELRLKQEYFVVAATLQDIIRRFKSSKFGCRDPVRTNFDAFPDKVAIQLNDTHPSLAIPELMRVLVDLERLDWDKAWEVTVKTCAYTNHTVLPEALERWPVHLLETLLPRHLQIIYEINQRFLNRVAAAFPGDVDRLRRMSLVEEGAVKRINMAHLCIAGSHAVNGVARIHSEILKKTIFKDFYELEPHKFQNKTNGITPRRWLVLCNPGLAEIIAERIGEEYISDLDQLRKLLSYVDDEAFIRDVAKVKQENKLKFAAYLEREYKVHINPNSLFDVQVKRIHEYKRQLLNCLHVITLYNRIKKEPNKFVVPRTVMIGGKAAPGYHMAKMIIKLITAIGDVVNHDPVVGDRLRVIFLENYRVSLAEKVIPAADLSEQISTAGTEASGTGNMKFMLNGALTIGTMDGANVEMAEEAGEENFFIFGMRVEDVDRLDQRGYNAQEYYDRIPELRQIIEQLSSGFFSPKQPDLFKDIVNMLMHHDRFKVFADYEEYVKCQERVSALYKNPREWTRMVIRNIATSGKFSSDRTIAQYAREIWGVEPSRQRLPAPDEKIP

logP [1] | Papp [2] | Ki ([3]; read-out: Ki) | Ki [3] | SMILES
-0.574 | 5.4 ×10⁻⁶ cm/s |  |  | Cc1ccc(-c2cnc(CCC(=O)N[C@@H]3O[C@H](CO)[C@@H](O)[C@H](O)[C@H]3O)o2)cc1
 |  | 56 µM |  | O=C(Nc1ccc2ccccc2c1)C(=O)N[C@@H]1O[C@H](CO)[C@@H](O)[C@H](O)[C@H]1O
 |  | 170 µM |  | COC(=O)CCC(=O)N[C@@H]1O[C@H](CO)[C@@H](O)[C@H](O)[C@H]1O
0.083 | 6.97 ×10⁻⁶ cm/s |  |  | O=C(C[C@H](c1ccc(Cl)cc1)C1CC1)N[C@@H]1O[C@H](CO)[C@@H](O)[C@H](O)[C@H]1O
-0.915 | 3.65 ×10⁻⁶ cm/s |  |  | O=C(CCc1ncc(-c2ccccc2)o1)N[C@@H]1O[C@H](CO)[C@@H](O)[C@H](O)[C@H]1O
 |  | 225 µM |  | O=C(N[C@@H]1O[C@H](CO)[C@@H](O)[C@H](O)[C@H]1O)[C@H](O)[C@@H](O)[C@@H](O)[C@H](O)CO
 |  | 230 µM |  | O=C(Nc1ccccn1)C(=O)N[C@@H]1O[C@H](CO)[C@@H](O)[C@H](O)[C@H]1O
 |  | 83 µM |  | COC(=O)CCCC(=O)N[C@@H]1O[C@H](CO)[C@@H](O)[C@H](O)[C@H]1O
 |  |  | Not Active | O=C(N[C@@H]1O[C@H](CO)[C@@H](O)[C@H](O)[C@H]1O)C(c1ccccc1)c1ccccc1
-0.958 | 3.89 ×10⁻⁶ cm/s |  |  | COc1ccc(/C=C/C(=O)N[C@@H]2O[C@H](CO)[C@@H](O)[C@H](O)[C@H]2O)c(O)c1
0.01 | 7.67 ×10⁻⁶ cm/s |  |  | CC[C@H](CC(=O)N[C@@H]1O[C@H](CO)[C@@H](O)[C@H](O)[C@H]1O)c1ccc(C)c(C)c1
 |  | 341 µM |  | O=C(N[C@@H]1O[C@H](CO)[C@@H](O)[C@H](O)[C@H]1O)[C@H](O)[C@@H](O)[C@H](O)[C@H](O)CO
-0.169 | 9.4 ×10⁻⁶ cm/s |  |  | O=C(N[C@@H]1O[C@H](CO)[C@@H](O)[C@H](O)[C@H]1O)C1=Cc2cc(Cl)ccc2OC1
-0.807 | 3.14 ×10⁻⁶ cm/s |  |  | O=C(CCNC(=O)c1ccc(F)c(F)c1)N[C@@H]1O[C@H](CO)[C@@H](O)[C@H](O)[C@H]1O
 |  | 100 µM |  | O=C(Nc1ccccc1)C(=O)N[C@@H]1O[C@H](CO)[C@@H](O)[C@H](O)[C@H]1O
 |  | 4 µM |  | O=C(NC(=O)c1cc2ccccc2[nH]1)N[C@@H]1O[C@H](CO)[C@@H](O)[C@H](O)[C@H]1O
 |  | 18 µM |  | O=C(Nc1ccccc1)N[C@@H]1O[C@H](CO)[C@@H](O)[C@H](O)[C@H]1O
0.496 | 8.77 ×10⁻⁶ cm/s |  |  | CC(C)(C)c1ccc(/C=C/C(=O)N[C@@H]2O[C@H](CO)[C@@H](O)[C@H](O)[C@H]2O)cc1
 |  | 710 µM |  | O=C(O)C(=O)N[C@@H]1O[C@H](CO)[C@@H](O)[C@H](O)[C@H]1O

logP [1] | Papp [2] | Ki ([3]; read-out: Ki) | Ki [3] | SMILES
0.075 | 7.87 ×10⁻⁶ cm/s |  |  | CC(C)c1ccc([C@@H](C)CC(=O)N[C@@H]2O[C@H](CO)[C@@H](O)[C@H](O)[C@H]2O)cc1
 |  | 5.2 µM |  | O=C(Nc1ccc2ccccc2c1)N[C@@H]1O[C@H](CO)[C@@H](O)[C@H](O)[C@H]1O
-0.36 | 8 ×10⁻⁶ cm/s |  |  | COc1cc(/C=C/C(=O)N[C@@H]2O[C@H](CO)[C@@H](O)[C@H](O)[C@H]2O)cc(OC)c1
 |  | 3.5 µM |  | O=C(/C=C/c1ccc2ccccc2c1)N[C@@H]1O[C@H](CO)[C@@H](O)[C@H](O)[C@H]1O
-0.221 | 3.85 ×10⁻⁶ cm/s |  |  | O=C1Cc2ccc(Cl)cc2C=C1C(=O)N[C@@H]1O[C@H](CO)[C@@H](O)[C@H](O)[C@H]1O
0.01 | 7.67 ×10⁻⁶ cm/s | 75.3 µM |  | CC(C)c1ccc(C[C@H](C)C(=O)N[C@@H]2O[C@H](CO)[C@@H](O)[C@H](O)[C@H]2O)cc1
 |  | 329 µM |  | COC(=O)c1ccc(C(=O)N[C@@H]2O[C@H](CO)[C@@H](O)[C@H](O)[C@H]2O)cc1
0.037 | 10.6 ×10⁻⁶ cm/s |  |  | CC(C)(Oc1ccc2ccccc2c1)C(=O)N[C@@H]1O[C@H](CO)[C@@H](O)[C@H](O)[C@H]1O
 |  | 144 µM |  | O=C(Nc1cccc2ccccc12)C(=O)N[C@@H]1O[C@H](CO)[C@@H](O)[C@H](O)[C@H]1O
0.004 | 12.2 ×10⁻⁶ cm/s |  |  | Cc1ccccc1[C@H](Cc1ccco1)C(=O)N[C@@H]1O[C@H](CO)[C@@H](O)[C@H](O)[C@H]1O
 |  | 580 µM |  | COC(=O)c1cccc(C(=O)N[C@@H]2O[C@H](CO)[C@@H](O)[C@H](O)[C@H]2O)c1
 |  | 18 µM |  | O=C(/C=C/c1ccccc1)N[C@@H]1O[C@H](CO)[C@@H](O)[C@H](O)[C@H]1O
0.33 | 9.77 ×10⁻⁶ cm/s |  |  | C[C@H](CC(=O)N[C@@H]1O[C@H](CO)[C@@H](O)[C@H](O)[C@H]1O)c1ccc(C(C)(C)C)cc1
 |  | 180 µM |  | O=C(Cn1cc(-c2ccccc2)nn1)N[C@@H]1O[C@H](CO)[C@@H](O)[C@H](O)[C@H]1O
-0.805 | 2.63 ×10⁻⁶ cm/s |  |  | COC(=O)c1ccc(/C=C/C(=O)N[C@@H]2O[C@H](CO)[C@@H](O)[C@H](O)[C@H]2O)cc1
0.379 | 10 ×10⁻⁶ cm/s |  |  | C[C@@H](Cc1ccc(C(C)(C)C)cc1)C(=O)N[C@@H]1O[C@H](CO)[C@@H](O)[C@H](O)[C@H]1O
0.255 | 14.5 ×10⁻⁶ cm/s |  |  | C[C@@H]1C[C@@]1(C(=O)N[C@@H]1O[C@H](CO)[C@@H](O)[C@H](O)[C@H]1O)c1cccc2ccccc12
-0.451 | 3.62 ×10⁻⁶ cm/s |  |  | Cc1ccc2c(c1)C=C(C(=O)N[C@@H]1O[C@H](CO)[C@@H](O)[C@H](O)[C@H]1O)C(=O)C2
 |  | 600 µM |  | O=C(Cc1ccccc1)NC(=O)N[C@@H]1O[C@H](CO)[C@@H](O)[C@H](O)[C@H]1O

logP [1] | Papp [2] | Ki ([3]; read-out: Ki) | Ki [3] | SMILES
 |  | 210 µM |  | COC(=O)C(=O)N[C@@H]1O[C@H](CO)[C@@H](O)[C@H](O)[C@H]1O
 |  | 289 µM |  | O=C(N[C@@H]1O[C@H](CO)[C@@H](O)[C@H](O)[C@H]1O)C1CCCCC1
 |  | 85 µM |  | O=C(CCc1ccccc1)N[C@@H]1O[C@H](CO)[C@@H](O)[C@H](O)[C@H]1O
 |  | 0.7 µM |  | CC(C)(C)c1ccc(C(=O)NC(=O)N[C@@H]2O[C@H](CO)[C@@H](O)[C@H](O)[C@H]2O)cc1
-2.09 | 0.47 ×10⁻⁶ cm/s |  |  | N[C@H](Cc1c[nH]c2ccccc12)C(=O)N[C@@H]1O[C@H](CO)[C@@H](O)[C@H](O)[C@H]1O
-1.21 | 3.17 ×10⁻⁶ cm/s |  |  | O=C(C[C@H]1CC(=O)c2c(F)cc(F)cc21)N[C@@H]1O[C@H](CO)[C@@H](O)[C@H](O)[C@H]1O
0.04 | 9.47 ×10⁻⁶ cm/s |  |  | CCc1ccc(/C=C/C(=O)N[C@@H]2O[C@H](CO)[C@@H](O)[C@H](O)[C@H]2O)cc1
-2.1 | 0.4 ×10⁻⁶ cm/s |  |  | N[C@@H](Cc1c[nH]c2ccccc12)C(=O)N[C@@H]1O[C@H](CO)[C@@H](O)[C@H](O)[C@H]1O
 |  | 1410 µM |  | O=C(NC1CC1)C(=O)N[C@@H]1O[C@H](CO)[C@@H](O)[C@H](O)[C@H]1O
 |  | 10 µM |  | O=C(N[C@@H]1O[C@H](CO)[C@@H](O)[C@H](O)[C@H]1O)c1cccc2ccccc12
-0.162 | 8.9 ×10⁻⁶ cm/s | 377 µM |  | CCc1ccc([C@H](C)CC(=O)N[C@@H]2O[C@H](CO)[C@@H](O)[C@H](O)[C@H]2O)cc1
 |  | 1.8 µM |  | O=C(NC(=O)c1ccc(C(F)(F)F)cc1)N[C@@H]1O[C@H](CO)[C@@H](O)[C@H](O)[C@H]1O
 |  |  | Not Active | CC(C)N(C(=O)C(=O)N[C@@H]1O[C@H](CO)[C@@H](O)[C@H](O)[C@H]1O)C(C)C
 |  | 920 µM |  | CCOC(=O)C(=O)N[C@@H]1O[C@H](CO)[C@@H](O)[C@H](O)[C@H]1O
 |  | 68 µM |  | O=C(NC(=O)c1ccccn1)N[C@@H]1O[C@H](CO)[C@@H](O)[C@H](O)[C@H]1O
 |  | 61 µM |  | O=C(C#Cc1ccccc1)N[C@@H]1O[C@H](CO)[C@@H](O)[C@H](O)[C@H]1O
 |  | 81 µM |  | O=C(N[C@@H]1O[C@H](CO)[C@@H](O)[C@H](O)[C@H]1O)C(F)(F)F
0.085 | 14.7 ×10⁻⁶ cm/s |  |  | CC(C)(C(=O)N[C@@H]1O[C@H](CO)[C@@H](O)[C@H](O)[C@H]1O)c1cccc2ccccc12

SMILES | logP [1] | Papp [2] | Ki ([3]; read-out: Ki) | Ki [3]
CC(=O)N[C@@H]1O[C@H](CO)[C@@H](O)[C@H](O)[C@H]1O |  |  | 32 µM | 
O=C(N[C@@H]1O[C@H](CO)[C@@H](O)[C@H](O)[C@H]1O)c1ccccc1 |  |  | 81 µM | 
